Experimental findings from PubChem BioAssay (NCI) are described below.

Some test systems named below: HCT-116 colon; UO-31 renal; SF-539 CNS; LOX IMVI melanoma; MOLT-4 leukemia; UACC-62 melanoma; A498 renal; EKVX NSCLC; SR leukemia; KM12 colon.
Test in all cases: NCI anticancer screen, dose series, 48 h

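Method: 48-hour compound exposure of cells in 96-well plates, five concentrations, linear interpolation of endpoints. GI50 = concentration required for 50% inhibition of growth. At the TGI there is no net growth.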 Some results are limits rather than exact numbers.

Turning to `Cc1cc([N+](=O)[O-])ccc1Sc1c2ccccc2nc2cc(Cl)ccc12`, the TGI in the experiment with HCT-116 colon was 63.8 µM; with UO-31 renal, > 100 µM; in the experiment on SF-539 CNS, 57.6 µM; in the experiment on LOX IMVI melanoma, 86.8 µM; in the experiment with MOLT-4 leukemia, 93.7 µM; in the experiment on UACC-62 melanoma it was > 100 µM. Besides, the TGI in the experiment with A498 renal was > 100 µM; with EKVX NSCLC it was > 100 µM; with SR leukemia it was > 100 µM; in the experiment on KM12 colon, 50.4 µM.
With `COC(=O)C(Cc1nc2ccccc2[nH]c1=O)/C(=N\NC(C)(C)C)C(=O)Nc1c(C)cc(Br)cc1C` (stereo not given), the TGI with HCT-116 colon was 37 µM; in the experiment with UO-31 renal, > 100 µM; with SF-539 CNS, 44.5 µM; with LOX IMVI melanoma, 40.7 µM; in the experiment with MOLT-4 leukemia, 28.7 µM; in the experiment with UACC-62 melanoma, 44.9 µM. In addition, the TGI was 69.5 µM in the experiment on A498 renal, > 100 µM in the experiment with EKVX NSCLC, 76.2 µM in the experiment on SR leukemia and > 100 µM in the experiment on KM12 colon.
As for `NC1=CC(=O)c2cccnc2C1=O`, the GI50 in the experiment on HCT-116 colon was 1.45 µM; in the experiment on UO-31 renal it was 1.17 µM; with SF-539 CNS it was 1.62 µM; in the experiment on LOX IMVI melanoma it was 0.981 µM; in the experiment on MOLT-4 leukemia, 1.01 µM; in the experiment on UACC-62 melanoma it was 1.47 µM. For the same compound, the GI50 in the experiment with A498 renal is 10.1 µM; in the experiment with EKVX NSCLC it was 1.58 µM; in the experiment with SR leukemia, 0.729 µM; in the experiment with KM12 colon it was 3.28 µM. Moreover, the TGI in the experiment with HCT-116 colon was 3.36 µM; in the experiment on UO-31 renal it was 2.5 µM; in the experiment with SF-539 CNS, 3 µM; in the experiment with LOX IMVI melanoma, 2.69 µM; in the experiment with MOLT-4 leukemia it was 3.45 µM; in the experiment on UACC-62 melanoma it was 2.87 µM. Further, the TGI stood at 23.3 µM in the experiment on A498 renal, 3.31 µM with EKVX NSCLC, 3.69 µM in the experiment with SR leukemia and 13.1 µM with KM12 colon.
In the case of `COc1ccc(/C=C(/C(=O)N2CCN(c3ccccc3)CC2)c2cc(OC)c(OC)c(OC)c2)cc1N`, the GI50 in the experiment with HCT-116 colon is 0.356 µM; in the experiment with UO-31 renal, 0.812 µM; in the experiment on SF-539 CNS, 0.223 µM; in the experiment on LOX IMVI melanoma, 0.696 µM; with MOLT-4 leukemia, 0.524 µM; with UACC-62 melanoma, 0.272 µM. Also, the GI50 in the experiment with A498 renal is 0.142 µM; in the experiment with EKVX NSCLC, 0.561 µM; in the experiment with SR leukemia, 0.409 µM; in the experiment with KM12 colon, 0.423 µM. The TGI in the experiment on HCT-116 colon was > 100 µM; in the experiment with UO-31 renal, > 100 µM; in the experiment on SF-539 CNS, 0.797 µM; in the experiment on LOX IMVI melanoma, > 100 µM; in the experiment with MOLT-4 leukemia it was > 100 µM; in the experiment on UACC-62 melanoma, > 100 µM. For the same compound, the TGI in the experiment on A498 renal was 0.778 µM; with EKVX NSCLC, > 100 µM; with SR leukemia, > 100 µM; in the experiment on KM12 colon, > 100 µM.
Turning to `CCOC(=O)c1ccccc1OC(=O)NNc1ccccc1`, the GI50 is 1.69 µM in the experiment with HCT-116 colon; 0.535 µM in the experiment on UO-31 renal; 0.312 µM with SF-539 CNS; 5 µM in the experiment with LOX IMVI melanoma; 0.465 µM in the experiment on MOLT-4 leukemia; 0.269 µM with UACC-62 melanoma. Moreover, the GI50 in the experiment with A498 renal was > 68 µM; in the experiment with EKVX NSCLC it was 6.07 µM; in the experiment on SR leukemia, 1.47 µM; in the experiment on KM12 colon, 0.173 µM. Besides, the TGI is > 100 µM in the experiment on HCT-116 colon; > 100 µM in the experiment on UO-31 renal; 1.33 µM in the experiment on SF-539 CNS; > 100 µM with LOX IMVI melanoma; > 100 µM with MOLT-4 leukemia; > 28.2 µM in the experiment with UACC-62 melanoma. The TGI with A498 renal was > 100 µM; in the experiment on EKVX NSCLC, > 100 µM; in the experiment with SR leukemia it was > 100 µM; with KM12 colon, > 56.4 µM.
With `CCN(CC)CC(C)(C)C(=O)/C=C/c1cccc(/C=C/C(=O)C(C)(C)CN(CC)CC)c1`, the TGI with HCT-116 colon stood at 1.24 µM; in the experiment on UO-31 renal, 3.17 µM; in the experiment with SF-539 CNS, 2.27 µM; with LOX IMVI melanoma, 0.37 µM; in the experiment with MOLT-4 leukemia, 0.901 µM; in the experiment on UACC-62 melanoma it was 3.16 µM. The TGI in the experiment on A498 renal is 2.71 µM; in the experiment on EKVX NSCLC it was 2.53 µM; in the experiment on SR leukemia it was 1.68 µM; in the experiment with KM12 colon it was 1.77 µM.
In the case of `CCCCCCCC/C=C/CCCCCCCC1=NC(C)(C)CN1CC(C)O` (stereo not given), the GI50 in the experiment on HCT-116 colon is 1.84 µM; in the experiment on UO-31 renal, 1.63 µM; with SF-539 CNS, 1.7 µM; in the experiment on LOX IMVI melanoma, 1.52 µM; in the experiment on MOLT-4 leukemia it was 2.05 µM; in the experiment on UACC-62 melanoma it was 1.66 µM. Besides, the GI50 in the experiment on A498 renal is 0.935 µM; in the experiment on EKVX NSCLC it was 4.84 µM; in the experiment on SR leukemia it was 0.7 µM; in the experiment with KM12 colon it was 1.99 µM. For the same compound, the TGI stood at 3.32 µM in the experiment on HCT-116 colon; 4.19 µM in the experiment with UO-31 renal; 3.09 µM with SF-539 CNS; 2.88 µM with LOX IMVI melanoma; 4.28 µM in the experiment on MOLT-4 leukemia; 3.13 µM in the experiment with UACC-62 melanoma. Also, the TGI was determined as 17 µM in the experiment on A498 renal, 18.2 µM in the experiment on EKVX NSCLC, 2.65 µM in the experiment on SR leukemia and 3.98 µM in the experiment on KM12 colon.
Take `Cc1ccc(S(=O)(=O)c2ccc(NC(=O)SCCC(=O)O)cc2)cc1`: the TGI in the experiment with HCT-116 colon, with UO-31 renal, in the experiment with SF-539 CNS, in the experiment on LOX IMVI melanoma, with MOLT-4 leukemia and with UACC-62 melanoma was > 100 µM each time. Also, the TGI in the experiment on A498 renal, in the experiment on EKVX NSCLC, in the experiment with SR leukemia and with KM12 colon was > 100 µM in each case.
`CCN(CC)CCNc1ccc(C)c2sc3cc(Cl)ccc3c(=O)c12`: the GI50 with HCT-116 colon was 1.65 µM; with UO-31 renal, 1.32 µM; in the experiment with SF-539 CNS, 1.6 µM; in the experiment on LOX IMVI melanoma, 1.58 µM; in the experiment with MOLT-4 leukemia, 1.55 µM; in the experiment on UACC-62 melanoma, 1.87 µM. The GI50 in the experiment on A498 renal was 1.89 µM; in the experiment on EKVX NSCLC, 1.47 µM; in the experiment with SR leukemia it was 1.6 µM; with KM12 colon it was 1.75 µM. Further, the TGI worked out at 3.15 µM in the experiment on HCT-116 colon; 2.69 µM in the experiment on UO-31 renal; 3 µM in the experiment on SF-539 CNS; 3.01 µM with LOX IMVI melanoma; 3.28 µM in the experiment on MOLT-4 leukemia; 3.54 µM in the experiment with UACC-62 melanoma. Further, the TGI is 4.79 µM with A498 renal, 3.1 µM with EKVX NSCLC, 3.57 µM with SR leukemia and 3.26 µM in the experiment on KM12 colon.
